Assay results from PubChem BioAssay (NCI).
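Dose response: 5 concentrations. Exposure: 48 h. Format: 96-well plates. Endpoint: linear interpolation; highest concentration if not reached. TGI: concentration producing complete growth inhibition.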

Columns and labels:
Test in all cases: NCI anticancer screen, dose series, 48 h
LOX IMVI melanoma = test system: LOX IMVI melanoma
SK-MEL-5 melanoma = test system: SK-MEL-5 melanoma
SF-539 CNS = test system: SF-539 CNS
HS 578T breast = test system: HS 578T breast
MOLT-4 leukemia = test system: MOLT-4 leukemia
RPMI-8226 leukemia = test system: RPMI-8226 leukemia
HOP-62 NSCLC = test system: HOP-62 NSCLC
HT29 colon = test system: HT29 colon
K-562 leukemia = test system: K-562 leukemia
UO-31 renal = test system: UO-31 renal
SNB-75 CNS = test system: SNB-75 CNS
MCF7 breast = test system: MCF7 breast
M14 melanoma = test system: M14 melanoma
UACC-257 melanoma = test system: UACC-257 melanoma
HCC-2998 colon = test system: HCC-2998 colon
IGROV1 ovarian = test system: IGROV1 ovarian
HOP-92 NSCLC = test system: HOP-92 NSCLC
SW-620 colon = test system: SW-620 colon
ACHN renal = test system: ACHN renal
OVCAR-8 ovarian = test system: OVCAR-8 ovarian
UACC-62 melanoma = test system: UACC-62 melanoma
SK-MEL-2 melanoma = test system: SK-MEL-2 melanoma
MDA-MB-231 breast = test system: MDA-MB-231 breast
SF-268 CNS = test system: SF-268 CNS
SNB-19 CNS = test system: SNB-19 CNS
OVCAR-5 ovarian = test system: OVCAR-5 ovarian
NCI-H226 lung = test system: NCI-H226 lung
HCT-116 colon = test system: HCT-116 colon
NCI-H460 lung = test system: NCI-H460 lung
RXF 393 renal = test system: RXF 393 renal
786-0 renal = test system: 786-0 renal
NCI-H23 lung = test system: NCI-H23 lung
DU-145 prostate = test system: DU-145 prostate
U251 CNS = test system: U251 CNS
SK-OV-3 ovarian = test system: SK-OV-3 ovarian
TK-10 renal = test system: TK-10 renal
BT-549 breast = test system: BT-549 breast
SF-295 CNS = test system: SF-295 CNS
HCT-15 colon = test system: HCT-15 colon
MALME-3M melanoma = test system: MALME-3M melanoma
T-47D breast = test system: T-47D breast
HL-60(TB) leukemia = test system: HL-60(TB) leukemia
SR leukemia = test system: SR leukemia
A549 NSCLC = test system: A549 NSCLC
NCI-H522 lung = test system: NCI-H522 lung
A498 renal = test system: A498 renal
MDA-MB-435 = test system: MDA-MB-435
NCI/ADR-RES ovarian = test system: NCI/ADR-RES ovarian
EKVX NSCLC = test system: EKVX NSCLC
CCRF-CEM leukemia = test system: CCRF-CEM leukemia
KM12 colon = test system: KM12 colon
MDA-N = test system: MDA-N
SN12C renal = test system: SN12C renal
COLO 205 colon = test system: COLO 205 colon
SK-MEL-28 melanoma = test system: SK-MEL-28 melanoma
OVCAR-3 ovarian = test system: OVCAR-3 ovarian
OVCAR-4 ovarian = test system: OVCAR-4 ovarian
PC-3 prostate = test system: PC-3 prostate
CAKI-1 renal = test system: CAKI-1 renal

Work on C/C(=N\NC(=S)N1CCN(c2ccccn2)CC1)c1cccc(C)n1 yielded a TGI (LOX IMVI melanoma) of 17.8 µM, a TGI (SK-MEL-5 melanoma) of 7.06 µM and a TGI (SF-539 CNS) of 6.12 µM. It also gave a TGI (HS 578T breast) of 43.5 µM, a TGI (MOLT-4 leukemia) of 53.2 µM and a TGI (RPMI-8226 leukemia) of 12.6 µM. The TGI (HOP-62 NSCLC) was 20.1 µM, the TGI (HT29 colon) was 14.5 µM and the TGI (K-562 leukemia) was greater than 38.2 µM. The TGI (UO-31 renal) was 30.6 µM, the TGI (SNB-75 CNS) was 12.5 µM and the TGI (MCF7 breast) was 12.4 µM. It also gave a TGI (M14 melanoma) of 9.23 µM, a TGI (UACC-257 melanoma) of 16.8 µM and a TGI (HCC-2998 colon) of 24.8 µM. It also gave a TGI (IGROV1 ovarian) of 4.01 µM, a TGI (HOP-92 NSCLC) of 14.3 µM and a TGI (SW-620 colon) of 14.2 µM. It also gave a TGI (ACHN renal) of 12.7 µM, a TGI (OVCAR-8 ovarian) of 14.1 µM and a TGI (UACC-62 melanoma) of 7.16 µM. It also gave a TGI (SK-MEL-2 melanoma) of 6.78 µM, a TGI (MDA-MB-231 breast) of 13.1 µM and a TGI (SF-268 CNS) of 19.9 µM. It also gave a TGI (SNB-19 CNS) of 19.9 µM, a TGI (OVCAR-5 ovarian) of 13.3 µM and a TGI (NCI-H226 lung) of 9.38 µM. It also gave a TGI (HCT-116 colon) of 10.5 µM, a TGI (NCI-H460 lung) of 11.9 µM and a TGI (RXF 393 renal) of 4.98 µM. For the same compound, the TGI (786-0 renal) was 3.31 µM, the TGI (NCI-H23 lung) was 21.8 µM and the TGI (DU-145 prostate) was 14.6 µM. The TGI (U251 CNS) was 17.5 µM, the TGI (SK-OV-3 ovarian) was 21.4 µM and the TGI (TK-10 renal) was 21.5 µM. It also gave a TGI (BT-549 breast) of 18 µM, a TGI (SF-295 CNS) of 12.3 µM and a TGI (HCT-15 colon) of 16 µM. It also gave a TGI (MALME-3M melanoma) of 19.3 µM, a TGI (T-47D breast) of 35 µM and a TGI (HL-60(TB) leukemia) of 17.6 µM. For the same compound, the TGI (SR leukemia) was greater than 100 µM, the TGI (A549 NSCLC) was 18.5 µM and the TGI (NCI-H522 lung) was 0.59 µM. The TGI (A498 renal) was 6.33 µM, the TGI (MDA-MB-435) was 17.4 µM and the TGI (NCI/ADR-RES ovarian) was 27.5 µM. The TGI (EKVX NSCLC) was 10.5 µM, the TGI (CCRF-CEM leukemia) was greater than 100 µM and the TGI (KM12 colon) was 18 µM. For the same compound, the TGI (MDA-N) was 17.8 µM, the TGI (SN12C renal) was 21.9 µM and the TGI (COLO 205 colon) was 11.3 µM. It also gave a TGI (SK-MEL-28 melanoma) of 25.3 µM.

In the case of O=C(O)CCC[C@]1(O)O[C@@]2(CCCC2=O)[C@]2(O)CCC[C@@]21O, the TGI (LOX IMVI melanoma) is reported as greater than 100 µM, the TGI (SK-MEL-5 melanoma) is reported as greater than 100 µM and the TGI (SF-539 CNS) is reported as greater than 100 µM. For the same compound, the TGI (HS 578T breast) was greater than 100 µM, the TGI (MOLT-4 leukemia) was greater than 100 µM and the TGI (RPMI-8226 leukemia) was greater than 100 µM. It also gave a TGI (OVCAR-3 ovarian) greater than 100 µM, a TGI (HOP-62 NSCLC) greater than 100 µM and a TGI (HT29 colon) greater than 100 µM. It also gave a TGI (K-562 leukemia) greater than 100 µM, a TGI (UO-31 renal) greater than 100 µM and a TGI (SNB-75 CNS) greater than 100 µM. It also gave a TGI (MCF7 breast) greater than 100 µM, a TGI (M14 melanoma) greater than 100 µM and a TGI (UACC-257 melanoma) greater than 100 µM. For the same compound, the TGI (OVCAR-4 ovarian) was greater than 100 µM, the TGI (IGROV1 ovarian) was greater than 100 µM and the TGI (HOP-92 NSCLC) was greater than 100 µM. For the same compound, the TGI (SW-620 colon) was greater than 100 µM, the TGI (ACHN renal) was greater than 100 µM and the TGI (OVCAR-8 ovarian) was greater than 100 µM. The TGI (UACC-62 melanoma) was greater than 100 µM, the TGI (SK-MEL-2 melanoma) was greater than 100 µM and the TGI (MDA-MB-231 breast) was greater than 100 µM. It also gave a TGI (SF-268 CNS) greater than 100 µM, a TGI (SNB-19 CNS) greater than 100 µM and a TGI (OVCAR-5 ovarian) greater than 100 µM. The TGI (NCI-H226 lung) was greater than 100 µM, the TGI (HCT-116 colon) was greater than 100 µM and the TGI (NCI-H460 lung) was greater than 100 µM. It also gave a TGI (RXF 393 renal) greater than 100 µM, a TGI (786-0 renal) greater than 100 µM and a TGI (NCI-H23 lung) greater than 100 µM. It also gave a TGI (DU-145 prostate) greater than 100 µM, a TGI (U251 CNS) greater than 100 µM and a TGI (TK-10 renal) greater than 100 µM. For the same compound, the TGI (BT-549 breast) was greater than 100 µM, the TGI (SF-295 CNS) was 64.4 µM and the TGI (HCT-15 colon) was greater than 100 µM. It also gave a TGI (PC-3 prostate) greater than 100 µM, a TGI (MALME-3M melanoma) greater than 100 µM and a TGI (T-47D breast) greater than 100 µM. For the same compound, the TGI (HL-60(TB) leukemia) was greater than 100 µM, the TGI (SR leukemia) was greater than 100 µM and the TGI (A549 NSCLC) was greater than 100 µM. The TGI (NCI-H522 lung) was 0.228 µM, the TGI (A498 renal) was greater than 100 µM and the TGI (CAKI-1 renal) was greater than 100 µM. The TGI (NCI/ADR-RES ovarian) was greater than 100 µM, the TGI (EKVX NSCLC) was greater than 100 µM and the TGI (KM12 colon) was greater than 100 µM. The TGI (MDA-N) was greater than 100 µM, the TGI (SN12C renal) was greater than 100 µM and the TGI (COLO 205 colon) was greater than 100 µM. The TGI (SK-MEL-28 melanoma) was greater than 100 µM.
